Columns and labels:
HMG-CoA reductase = assay: In vitro determination of HMG-CoA reductase inhibitory activity; format: biochemical, rat; conditions: for Relative Potency: Relative to compactin arbitrarily assigned a value of 100; for IC50: purified rat liver microsomal HMG-CoA reductase, 37° C., 40 minutes, pH 7.2
Procedure: The intrinsic HMG-CoA reductase inhibition activity of the claimed compounds is measured in the in vitro protocol described below:
The In Vitro Determination of HMG-CoA Reductase Activity in Liver and the In Vitro Testing of Inhibitors
The procedure to measure in vitro HMG-CoA reductase activity in rat liver involves two steps and is based upon the procedure of Alberts et al:^1
1. Preparation of liver microsomal pellets.
2. Assay of the pellet for HMG-CoA reductase activity.
Reference: 1. Alberts, et al., Proceedings of the National Academy of Science, Vol. 77, pp. 3957-61 (1980).
Microsomes are prepared from livers of 150-200 g male rats (Charles River) maintained for a week on ground chow containing 2.0% cholestyramine, a bile acid sequestrant. The rats are sacrificed by cervical dislocation, and the livers removed immediately and chilled on ice. All subsequent operation are carried out at 0°-5° C.
Buffer I (for homogenization)
Procedure: all operation at 4° C.
Purification of HMG-CoA Reductase from Microsomal Pellet
Procedure: all operations are carried out at room temperature
The complete assay system is in a total volume of 0.8 ml in phosphate buffer at pH 7.2 (100 mM) with the cofactors at the following concentrations: MgCl2 3 mM; NADP, 3 mM; glucose-6-phosphate, 10 mM; glucose-6-phosphate dehydrogenase (ED 1.1.1.49) 3.0 enzyme units; reduced glutathione, 50 mM; HMG-CoA (Glutaryl-3-^14 C) 0.2 mM (0.1 μCi) and enzyme suspension, 0.1 ml.
The frozen pellet (enzyme) is allowed to thaw at room temperature for 5 minutes and carefully mixed with a stirring rod to a slurry with 0.1 ml of phosphate buffer (pH 7.2) and then diluted to 2.0 ml with the buffer. A volume (0.1 ml) of enzyme suspension is added to each incubation tube. Compounds to be tested are diluted to an appropriate concentration and added in a volume to 10 μ before adding the enzyme. An "untreated-control" is run along with the compounds.
The complete system is placed in 16×125 mm screw-cap culture tubes and shaken uncapped in a 37° C. water bath for 40 minutes at 160 oscillations per minute. At the end of this period the reaction is stopped by the addition of 0.4 ml of 8N HCl. 3 Mg of unlabeled mevalonolactone in 0.1 ml H2 O is added and the tubes shaken as before for an additional 30 minutes at 37° C. to ensure lactonization of the biosynthetic mevalonate.
200 μl of reaction mixture are applied to Bio-Rex 5 column (5 cm in a Pasteur pipette). Elute three times with one ml each of water into a scintillation vial. Add 10 ml of Aquasol-2, shake and count.
Bio-Rex is an ion-exchange resin, obtained from Bio-Rad. It comes dry in the chloride form and only the 100-200 mesh should be used. It is swelled in water for several hours; any fine particles should be decanted off as these will impair the flow rate. The hydrated resin should be stored at 4° C.
Each assay includes 2 untreated controls plus a "killed control" (reaction is stopped immediately before incubation by addition of 0.4 ml of 8N HCl).
After subtracting killed control CPM from all samples, percent inhibition by the test compounds is calculated as follows: [formula]

[1] = Stability of the free hydroxy acid on standing; format: physicochemical
Procedure: The sodium salt of the compound II from Example 17 is redissolved in 2 ml of ethanol-water (1:1) and added to 10 ml of 1N hydrochloric acid from which the hydroxy acid is extracted with ethyl acetate. The latter solvent is washed once with water, dried, and removed in vacuo with a bath temperature not exceeding 30° C.

## C[C@H]1C=C2C=C[C@H](C)[C@H](CC[C@@H](O)C[C@@H](O)CC(=O)O)[C@H]2[C@@H](OC(=O)C(C)(C)CO)C1 [n=1, R=H, R1=CH3, R2=CH3, R3=H]
HMG-CoA reductase
  Relative Potency: 80
  IC50: 20 nM

## CC1C=C2C=CC(C)C(CCC(O)CC(O)CC(=O)O)C2C(OC(=O)C(C)(C)CCO)C1 [n=2, R=H, R1=CH3, R2=CH3, R3=H, 7-[1,2,6,7,8,8a(R)-Hexahydro-2(S),6(R)-dimethyl-8(S)-(2,2-dimethyl-4-hydroxybutyryloxy)naphthalenyl-1(S)]-3(R),5(R)-dihydroxyheptanoic acid]
HMG-CoA reductase
  Relative Potency: 64
  IC50: 15.6 nM
[1]
  reversion of hydroxy acid to lactone: slowly reverts to the lactone on standing

## CC(CCO)C(=O)O[C@H]1C[C@@H](C)C=C2C=C[C@H](C)[C@H](CC[C@@H](O)C[C@@H](O)CC(=O)O)[C@H]21 (stereo partly drawn) [n=2, R=H, R1=H, R2=CH3, R3=H]
HMG-CoA reductase
  Relative Potency: 30
  IC50: 40 nM

## C[C@H]1C=C2C=C[C@H](C)[C@H](CC[C@@H](O)C[C@@H](O)CC(=O)O)[C@H]2[C@@H](OC(=O)C(C)(C)CCCO)C1 [n=3, R=H, R1=CH3, R2=CH3, R3=H]
HMG-CoA reductase
  Relative Potency: 63
  IC50: 30 nM
